Laboratory results published in US8357694B2, “Substituted 5,6-dihydro-6-phenylbenzo[F]isoquinolin-2-amine compounds” (ArQule, Inc., priority 2008, dated 2013).

Columns and labels:
Assay type in all cases: cell-based
[1] = system: NCI-H1299; assay: MTS cell kill, NCI-H1299
Procedure: (§1) Cells were maintained at 37° C., 5% CO2 in DMEM media supplemented with 1% fetal bovine serum, penicillin/streptomycin and fungizone (Invitrogen). Cells were seeded into 96-well tissue culture plates at 3000 per well and cultured at 37° C. for 18 hours. Test compounds were dissolved and diluted to 300× in DMSO then diluted 1:40 in DMEM.

[2] = system: MDA-MB-231; assay: MTS cell kill, MDA-MB-231
Procedure: as §1

[3] = system: KATO III; assay: MTS assay, KATO III
Procedure: as §1

[4] = system: DLD-1; assay: MTS cell kill, DLD-1
Procedure: as §1

[5] = system: PACA-2; assay: MTS cell kill, PACA-2
Procedure: as §1

[6] = system: PC-3; assay: MTS cell kill, PC-3
Procedure: as §1
Note: test concentration or dose not given here.

SMILES | MTS cell kill data (% inhibition) NCI-H1299 [1] | MTS cell kill data (% inhibition) MDA-MB-231 [2] | MTS cell kill data (% inhibition) KATO III [3] | MTS cell kill data (% inhibition) DLD-1 [4] | MTS cell kill data (% inhibition) PACA-2 [5] | MTS cell kill data (% inhibition) PC-3 [6]
N#Cc1cccc(NC(=O)N2CCC3(CC2)Cc2cnc(Nc4ccc(CCO)cc4)nc2-c2ccccc23)c1 [Example 413, N-(3-cyanophenyl)-2-{[4-(2-hydroxyethyl)phenyl]amino}-1′H,5H-spiro[benzo[h]quinazoline-6,4′-piperidine]-1′-carboxamide] | B (B = 50-79% inhibition) | A (A = 80-100% inhibition) | A (A = 80-100% inhibition) | A (A = 80-100% inhibition) | A (A = 80-100% inhibition) | –
N#Cc1cccc(NC(=O)N2CCC3(CC2)Cc2cnc(Nc4ccc(CO)cc4)nc2-c2ccccc23)c1 [Example 414, N-(3-cyanophenyl)-2-{[4-(hydroxymethyl)phenyl]amino}-1′H,5H-spiro[benzo[h]quinazoline-6,4′-piperidine]-1′-carboxamide] | B (B = 50-79% inhibition) | B (B = 50-79% inhibition) | A (A = 80-100% inhibition) | B (B = 50-79% inhibition) | A (A = 80-100% inhibition) | –
Cc1ccc(S(=O)(=O)Nc2ccc(C3Cc4cnc(NCCCCN(C)C)nc4-c4ccccc43)cc2)cc1 (stereo not shown) [Example 420, N-[4-(2-{[4-(dimethylamino)butyl]amino}-5,6-dihydrobenzo[h]quinazolin-6-yl)phenyl]-4-methylbenzenesulfonamide] | A (A = 80-100% inhibition) | A (A = 80-100% inhibition) | A (A = 80-100% inhibition) | A (A = 80-100% inhibition) | A (A = 80-100% inhibition) | A (A = 80-100% inhibition)
CN(C)CCCCNc1ncc2c(n1)-c1ccccc1C(c1ccc(NS(=O)(=O)c3ccc(-c4ccccc4)cc3)cc1)C2 (stereo not shown) [Example 421, N-[4-(2-{[4-(dimethylamino)butyl]amino}-5,6-dihydrobenzo[h]quinazolin-6-yl)phenyl]biphenyl-4-sulfonamide] | A (A = 80-100% inhibition) | A (A = 80-100% inhibition) | A (A = 80-100% inhibition) | A (A = 80-100% inhibition) | A (A = 80-100% inhibition) | A (A = 80-100% inhibition)
Cc1ccc(S(=O)(=O)Nc2ccc(C3Cc4cnc(NCCCCN(C)C)nc4-c4ccccc43)cc2)c(C)c1 (stereo not shown) [Example 423, N-[4-(2-{[4-(dimethylamino)butyl]amino}-5,6-dihydrobenzo[h]quinazolin-6-yl)phenyl]-2,4-dimethylbenzenesulfonamide] | A (A = 80-100% inhibition) | A (A = 80-100% inhibition) | A (A = 80-100% inhibition) | A (A = 80-100% inhibition) | A (A = 80-100% inhibition) | A (A = 80-100% inhibition)
CN(C)CCCCNc1ncc2c(n1)-c1ccccc1C(c1ccc(NS(=O)(=O)c3ccc(Br)s3)cc1)C2 (stereo not shown) [Example 427, 5-bromo-N-[4-(2-{[4-(dimethylamino)butyl]amino}-5,6-dihydrobenzo[h]quinazolin-6-yl)phenyl]thiophene-2-sulfonamide] | A (A = 80-100% inhibition) | A (A = 80-100% inhibition) | A (A = 80-100% inhibition) | A (A = 80-100% inhibition) | A (A = 80-100% inhibition) | B (B = 50-79% inhibition)
CN(C)CCCCNc1ncc2c(n1)-c1ccccc1C(c1ccc(NS(=O)(=O)c3cccc(C(F)(F)F)c3)cc1)C2 (stereo not shown) [Example 430, N-[4-(2-{[4-(dimethylamino)butyl]amino}-5,6-dihydrobenzo[h]quinazolin-6-yl)phenyl]-3-(trifluoromethyl)benzenesulfonamide] | A (A = 80-100% inhibition) | A (A = 80-100% inhibition) | A (A = 80-100% inhibition) | A (A = 80-100% inhibition) | A (A = 80-100% inhibition) | A (A = 80-100% inhibition)
Cc1cccc(Cl)c1S(=O)(=O)Nc1ccc(C2Cc3cnc(NCCCCN(C)C)nc3-c3ccccc32)cc1 (stereo not shown) [Example 431, 2-chloro-N-[4-(2-{[4-(dimethylamino)butyl]amino}-5,6-dihydrobenzo[h]quinazolin-6-yl)phenyl]-6-methylbenzenesulfonamide] | A (A = 80-100% inhibition) | A (A = 80-100% inhibition) | A (A = 80-100% inhibition) | A (A = 80-100% inhibition) | A (A = 80-100% inhibition) | B (B = 50-79% inhibition)
CN(C)CCCCNc1ncc2c(n1)-c1ccccc1C(c1ccc(NS(=O)(=O)c3cccc4cccnc34)cc1)C2 (stereo not shown) [Example 434, N-[4-(2-{[4-(dimethylamino)butyl]amino}-5,6-dihydrobenzo[h]quinazolin-6-yl)phenyl]quinoline-8-sulfonamide] | A (A = 80-100% inhibition) | A (A = 80-100% inhibition) | A (A = 80-100% inhibition) | A (A = 80-100% inhibition) | A (A = 80-100% inhibition) | A (A = 80-100% inhibition)
CCCc1ccc(CNc2ccc(C3Cc4cnc(NCCCN5CCN(C)CC5)nc4-c4ccccc43)cc2)cc1 (stereo not shown) [Example 569, N-[3-(4-methylpiperazin-1-yl)propyl]-6-{4-[(4-propylbenzyl)amino]phenyl}-5,6-dihydrobenzo[h]quinazolin-2-amine] | A (A = 80-100% inhibition) | A (A = 80-100% inhibition) | A (A = 80-100% inhibition) | A (A = 80-100% inhibition) | A (A = 80-100% inhibition) | –
Cc1ccc(F)c(CNc2ccc(C3Cc4cnc(NCCCN5CCN(C)CC5)nc4-c4ccccc43)cc2)c1 (stereo not shown) [Example 570, 6-{4-[(2-fluoro-5-methylbenzyl)amino]phenyl}-N-[3-(4-methylpiperazin-1-yl)propyl]-5,6-dihydrobenzo[h]quinazolin-2-amine] | A (A = 80-100% inhibition) | A (A = 80-100% inhibition) | A (A = 80-100% inhibition) | A (A = 80-100% inhibition) | A (A = 80-100% inhibition) | –
Cc1ccc(CNc2ccc(C3Cc4cnc(NCCCN5CCN(C)CC5)nc4-c4ccccc43)cc2)c(C)c1 (stereo not shown) [Example 571, 6-{4-[(2,4-dimethylbenzyl)amino]phenyl}-N-[3-(4-methylpiperazin-1-yl)propyl]-5,6-dihydrobenzo[h]quinazolin-2-amine] | A (A = 80-100% inhibition) | A (A = 80-100% inhibition) | A (A = 80-100% inhibition) | A (A = 80-100% inhibition) | A (A = 80-100% inhibition) | –
CN1CCN(CCCNc2ncc3c(n2)-c2ccccc2C(c2ccc(NCc4ccc5c(c4)CCO5)cc2)C3)CC1 (stereo not shown) [Example 572, 6-{4-[(2,3-dihydro-1-benzofuran-5-ylmethyl)amino]phenyl}-N-[3-(4-methylpiperazin-1-yl)propyl]-5,6-dihydrobenzo[h]quinazolin-2-amine] | A (A = 80-100% inhibition) | A (A = 80-100% inhibition) | A (A = 80-100% inhibition) | A (A = 80-100% inhibition) | A (A = 80-100% inhibition) | –
CN1CCN(CCCNc2ncc3c(n2)-c2ccccc2C(c2ccc(NCc4cccc5cc[nH]c45)cc2)C3)CC1 (stereo not shown) [Example 573, 6-{4-[(1H-indol-7-ylmethyl)amino]phenyl}-N-[3-(4-methylpiperazin-1-yl)propyl]-5,6-dihydrobenzo[h]quinazolin-2-amine] | A (A = 80-100% inhibition) | A (A = 80-100% inhibition) | A (A = 80-100% inhibition) | A (A = 80-100% inhibition) | A (A = 80-100% inhibition) | –
CN1CCN(CCCNc2ncc3c(n2)-c2ccccc2C(c2ccc(NCc4ccccc4F)cc2)C3)CC1 (stereo not shown) [Example 574, 6-{4-[(2-fluorobenzyl)amino]phenyl}-N-[3-(4-methylpiperazin-1-yl)propyl]-5,6-dihydrobenzo[h]quinazolin-2-amine] | A (A = 80-100% inhibition) | A (A = 80-100% inhibition) | A (A = 80-100% inhibition) | A (A = 80-100% inhibition) | A (A = 80-100% inhibition) | –
